Reference: patent publication US8759340B2, “Benzodiazepinone compounds useful in the treatment of skin conditions” (The Regents of the University of Michigan, priority 2007, dated 2014)

How the values were obtained:
human keratinocytes (KC) = assay: Keratinocyte proliferation assay; format: cell-based; conditions: KC, day 2; for inhibition at 0.05 µM / inhibition at 0.1 µM / inhibition at 0.5 µM / inhibition at 1 µM / inhibition at 5 µM / inhibition at 10 µM: Homo sapiens, Keratinocyte, 48 h, read-out: Percent Inhibition of Cells Per Concentration of Test Compound
Experimental: Epidermal keratinocytes were isolated from fresh tissue biopsies as described previously (Varani et al., (1994) J. Clin. Invest. 94:1747-1753). Primary and early passage cells were maintained in Keratinocyte Growth Medium (KGM) (Lonza). KGM contains the same basal medium as KBM but is further supplemented with a mixture of growth factors including 0.1 ng per mL EGF, 0.5 μg per mL insulin, and 0.4% bovine pituitary extract. In addition to using low-passage keratinocytes, we also used the HaCat line of immortalized human epidermal keratinocytes in some experiments. The immortalized keratinocytes were handled exactly as low-passage keratinocytes.
(§1) Keratinocyte proliferation was assessed by seeding 4×10^4 cells per well in a 24-well plate using KGM as culture medium. After the cells had attached (overnight), they were washed and triplicate samples were harvested for zero-time counts. DMSO served as a negative control. Proliferation was measured on day 2 by releasing the cells with trypsin/EDTA and enumerating them using a particle counter (Coulter Electronics, Hialeah, Fla.). Fibroblast proliferation studies were conducted in a similar manner except that […] was used as culture medium.
(§2) KC refers to human keratinocytes. HFF refers to human foreskin fibroblasts. The cLogP values were calculated using ChemDraw™ (CambridgeSoft).

[1] = tested on: human foreskin fibroblasts (HFF); assay: Fibroblast proliferation assay; format: cell-based; conditions: HFF, day 2; for inhibition at 1 µM / inhibition at 0.05 µM / inhibition at 0.1 µM / inhibition at 0.5 µM / inhibition at 5 µM / inhibition at 10 µM: Homo sapiens, 48 h, read-out: Percent Inhibition of Cells Per Concentration of Test Compound; for inhibition at 0.05 µM / inhibition at 0.1 µM / inhibition at 0.5 µM / inhibition at 5 µM / inhibition at 10 µM: Fibroblast
Experimental: Fibroblasts obtained from the same tissue were grown in monolayer culture using Dulbecco's modified minimal essential medium supplemented with nonessential amino acids and 10% fetal bovine serum (DMEM-FBS) as culture medium. Both keratinocytes and fibroblasts were maintained at 37° C. in an atmosphere of 95% air and 5% CO2. Cells were subcultured by exposure to trypsin/ethylenediamine tetraacetic acid (EDTA) and used at passage 2-4.
as §1, §2

## CC(C)c1ccc(C(C)C)c(CC2N=C(c3ccc(O)cc3)c3cc(Cl)ccc3N(C)C2=O)c1 (stereo not drawn) [Compound 10, (Z)-3-(2,5-Diisopropylbenzyl)-7-chloro-5-(4-hydroxyphenyl)-1-methyl-1H-benzo[e][1,4]diazepin-2(3H)-one]
Human keratinocytes (KC); 0.05 μM
  inhibition at 0.05 µM: < 20%
Human keratinocytes (KC); 0.1 μM
  inhibition at 0.1 µM: < 20%
Human keratinocytes (KC); 0.5 μM
  inhibition at 0.5 µM: < 20%
Human keratinocytes (KC); 1 μM
  inhibition at 1 µM: ≥ 20%
Human keratinocytes (KC); 5 μM
  inhibition at 5 µM: ≥ 90%
Human keratinocytes (KC); 10 μM
  inhibition at 10 µM: ≥ 90%
[1]; 1 μM
  inhibition at 1 µM: < 20%
[1]; 0.05 μM
  inhibition at 0.05 µM: < 20%
[1]; 0.1 μM
  inhibition at 0.1 µM: < 20%
[1]; 0.5 μM
  inhibition at 0.5 µM: < 20%
[1]; 5 μM
  inhibition at 5 µM: ≥ 90%
[1]; 10 μM
  inhibition at 10 µM: ≥ 90%

## CCc1ccc(CC2N=C(c3ccc(O)cc3)c3cc(Cl)ccc3N(C)C2=O)cc1CC (stereo not drawn) [Compound 4, (Z)-3-(3,4-Diethylbenzyl)-7-chloro-5-(4-hydroxyphenyl)-1-methyl-11H-benzo[e][1,4]diazepin-2(3H)-one]
Human keratinocytes (KC); 0.05 μM
  Percent Inhibition of Cells Per Concentration of Test Compound: <20%
Human keratinocytes (KC); 0.1 μM
  Percent Inhibition of Cells Per Concentration of Test Compound: <20%
Human keratinocytes (KC); 0.5 μM
  Percent Inhibition of Cells Per Concentration of Test Compound: <20%
Human keratinocytes (KC); 1 μM
  Percent Inhibition of Cells Per Concentration of Test Compound: ≧20%
Human keratinocytes (KC); 5 μM
  Percent Inhibition of Cells Per Concentration of Test Compound: ≧90%
Human keratinocytes (KC); 10 μM
  Percent Inhibition of Cells Per Concentration of Test Compound: ≧90%
[1]; 0.05 μM
  Percent Inhibition of Cells Per Concentration of Test Compound: <20%
[1]; 0.1 μM
  Percent Inhibition of Cells Per Concentration of Test Compound: <20%
[1]; 0.5 μM
  Percent Inhibition of Cells Per Concentration of Test Compound: <20%
[1]; 1 μM
  Percent Inhibition of Cells Per Concentration of Test Compound: <20%
[1]; 5 μM
  Percent Inhibition of Cells Per Concentration of Test Compound: ≧90%
[1]; 10 μM
  Percent Inhibition of Cells Per Concentration of Test Compound: ≧90%

## CCc1cc(CC)cc(CC2N=C(c3ccc(O)cc3)c3cc(Cl)ccc3N(C)C2=O)c1 (stereo not drawn) [Compound 6, (Z)-3-(3,5-Diethylbenzyl)-7-chloro-5-(4-hydroxyphenyl)-1-methyl-1H-benzo[e][1,4]diazepin-2(3H)-one]
Human keratinocytes (KC); 0.05 μM
  inhibition at 0.05 µM: < 20%
Human keratinocytes (KC); 0.1 μM
  inhibition at 0.1 µM: < 20%
Human keratinocytes (KC); 0.5 μM
  inhibition at 0.5 µM: < 20%
Human keratinocytes (KC); 1 μM
  inhibition at 1 µM: < 20%
Human keratinocytes (KC); 5 μM
  inhibition at 5 µM: ≥ 90%
Human keratinocytes (KC); 10 μM
  inhibition at 10 µM: ≥ 90%
[1]; 1 μM
  inhibition at 1 µM: < 20%
[1]; 0.05 μM
  inhibition at 0.05 µM: < 20%
[1]; 0.1 μM
  inhibition at 0.1 µM: < 20%
[1]; 0.5 μM
  inhibition at 0.5 µM: < 20%
[1]; 5 μM
  inhibition at 5 µM: ≥ 90%
[1]; 10 μM
  inhibition at 10 µM: ≥ 90%

## CC(C)c1ccc(C(C)C)c(CC2N=C(c3ccc(O)cc3)c3cc(Cl)ccc3NC2=O)c1 (stereo not drawn) [Compound 9, (Z)-3-(2,5-Diisopropylbenzyl)-7-chloro-5-(4-hydroxyphenyl)-1H-benzo[e][1,4]diazepin-2(3H)-one]
Human keratinocytes (KC); 0.05 μM
  inhibition at 0.05 µM: < 20%
Human keratinocytes (KC); 0.1 μM
  inhibition at 0.1 µM: < 20%
Human keratinocytes (KC); 0.5 μM
  inhibition at 0.5 µM: ≥ 20%
Human keratinocytes (KC); 1 μM
  inhibition at 1 µM: ≥ 20%
Human keratinocytes (KC); 5 μM
  inhibition at 5 µM: ≥ 90%
Human keratinocytes (KC); 10 μM
  inhibition at 10 µM: ≥ 90%
[1]; 1 μM
  inhibition at 1 µM: < 20%
[1]; 0.05 μM
  inhibition at 0.05 µM: < 20%
[1]; 0.1 μM
  inhibition at 0.1 µM: < 20%
[1]; 0.5 μM
  inhibition at 0.5 µM: < 20%
[1]; 5 μM
  inhibition at 5 µM: ≥ 90%
[1]; 10 μM
  inhibition at 10 µM: ≥ 90%

## CC(C)c1ccc(CC2N=C(c3ccc(O)cc3)c3cc(Cl)ccc3NC2=O)cc1 (stereo not drawn) [Compound 7, (Z)-3-(4-Isopropylbenzyl)-7-chloro-5-(4-hydroxyphenyl)-1H-benzo[e][1,4]diazepin-2(3H)-one]
Human keratinocytes (KC); 0.05 μM
  inhibition at 0.05 µM: < 20%
Human keratinocytes (KC); 0.1 μM
  inhibition at 0.1 µM: < 20%
Human keratinocytes (KC); 0.5 μM
  inhibition at 0.5 µM: < 20%
Human keratinocytes (KC); 1 μM
  inhibition at 1 µM: ≥ 20%
Human keratinocytes (KC); 5 μM
  inhibition at 5 µM: ≥ 90%
Human keratinocytes (KC); 10 μM
  inhibition at 10 µM: ≥ 90%
[1]; 1 μM
  inhibition at 1 µM: ≥ 20%
[1]; 0.05 μM
  inhibition at 0.05 µM: < 20%
[1]; 0.1 μM
  inhibition at 0.1 µM: < 20%
[1]; 0.5 μM
  inhibition at 0.5 µM: < 20%
[1]; 5 μM
  inhibition at 5 µM: ≥ 90%
[1]; 10 μM
  inhibition at 10 µM: ≥ 90%

## Cc1cc(C)cc(CC2N=C(c3ccc(O)cc3)c3cc(Cl)ccc3N(C)C2=O)c1 (stereo not drawn) [Compound 2, (Z)-3-(3,5-Dimethylbenzyl)-7-chloro-5-(4-hydroxyphenyl)-1-methyl-1H-benzo[e][1,4]diazepin-2(3H)-one]
Human keratinocytes (KC); 0.05 μM
  inhibition at 0.05 µM: < 20%
Human keratinocytes (KC); 0.1 μM
  inhibition at 0.1 µM: < 20%
Human keratinocytes (KC); 0.5 μM
  inhibition at 0.5 µM: ≥ 20%
Human keratinocytes (KC); 1 μM
  inhibition at 1 µM: ≥ 20%
Human keratinocytes (KC); 5 μM
  inhibition at 5 µM: ≥ 90%
Human keratinocytes (KC); 10 μM
  inhibition at 10 µM: ≥ 90%
[1]; 1 μM
  inhibition at 1 µM: < 20%
[1]; 0.05 μM
  inhibition at 0.05 µM: < 20%
[1]; 0.1 μM
  inhibition at 0.1 µM: < 20%
[1]; 0.5 μM
  inhibition at 0.5 µM: < 20%
[1]; 5 μM
  inhibition at 5 µM: ≥ 90%
[1]; 10 μM
  inhibition at 10 µM: ≥ 90%

## CC(C)c1ccc(CC2N=C(c3ccc(O)cc3)c3cc(Cl)ccc3N(C)C2=O)cc1 (stereo not drawn) [Compound 8, (Z)-3-(4-Isopropylbenzyl)-7-chloro-5-(4-hydroxyphenyl)-1-methyl-1H-benzo[e][1,4]diazepin-2(3H)-one]
Human keratinocytes (KC); 0.05 μM
  inhibition at 0.05 µM: < 20%
Human keratinocytes (KC); 0.1 μM
  inhibition at 0.1 µM: < 20%
Human keratinocytes (KC); 0.5 μM
  inhibition at 0.5 µM: ≥ 20%
Human keratinocytes (KC); 1 μM
  inhibition at 1 µM: ≥ 20%
Human keratinocytes (KC); 5 μM
  inhibition at 5 µM: ≥ 90%
Human keratinocytes (KC); 10 μM
  inhibition at 10 µM: ≥ 90%
[1]; 1 μM
  inhibition at 1 µM: < 20%
[1]; 0.05 μM
  inhibition at 0.05 µM: < 20%
[1]; 0.1 μM
  inhibition at 0.1 µM: < 20%
[1]; 0.5 μM
  inhibition at 0.5 µM: < 20%
[1]; 5 μM
  inhibition at 5 µM: ≥ 90%
[1]; 10 μM
  inhibition at 10 µM: ≥ 90%

## CCc1cccc(CC)c1CC1N=C(c2ccc(O)cc2)c2cc(Cl)ccc2NC1=O (stereo not drawn) [Compound 3, (Z)-3-(2,6-Diethylbenzyl)-7-chloro-5-(4-hydroxyphenyl)-1H-benzo[e][1,4]diazepin-2(3H)-one]
Human keratinocytes (KC); 0.05 μM
  inhibition at 0.05 µM: < 20%
Human keratinocytes (KC); 0.1 μM
  inhibition at 0.1 µM: < 20%
Human keratinocytes (KC); 0.5 μM
  inhibition at 0.5 µM: < 20%
Human keratinocytes (KC); 1 μM
  inhibition at 1 µM: ≥ 20%
Human keratinocytes (KC); 5 μM
  inhibition at 5 µM: ≥ 90%
Human keratinocytes (KC); 10 μM
  inhibition at 10 µM: ≥ 90%
[1]; 1 μM
  inhibition at 1 µM: < 20%
[1]; 0.05 μM
  inhibition at 0.05 µM: < 20%
[1]; 0.1 μM
  inhibition at 0.1 µM: < 20%
[1]; 0.5 μM
  inhibition at 0.5 µM: < 20%
[1]; 5 μM
  inhibition at 5 µM: ≥ 90%
[1]; 10 μM
  inhibition at 10 µM: ≥ 90%

## CCc1cc(CC)cc(CC2N=C(c3ccc(O)cc3)c3cc(Cl)ccc3NC2=O)c1 (stereo not drawn) [Compound 5, (Z)-3-(3,5-Diethylbenzyl)-7-chloro-5-(4-hydroxyphenyl)-1H-benzo[e][1,4]diazepin-2(3H)-one]
Human keratinocytes (KC); 0.05 μM
  inhibition at 0.05 µM: < 20%
Human keratinocytes (KC); 0.1 μM
  inhibition at 0.1 µM: < 20%
Human keratinocytes (KC); 0.5 μM
  inhibition at 0.5 µM: ≥ 20%
Human keratinocytes (KC); 1 μM
  inhibition at 1 µM: ≥ 20%
Human keratinocytes (KC); 5 μM
  inhibition at 5 µM: ≥ 90%
Human keratinocytes (KC); 10 μM
  inhibition at 10 µM: ≥ 90%
[1]; 1 μM
  inhibition at 1 µM: < 20%
[1]; 0.05 μM
  inhibition at 0.05 µM: < 20%
[1]; 0.1 μM
  inhibition at 0.1 µM: < 20%
[1]; 0.5 μM
  inhibition at 0.5 µM: < 20%
[1]; 5 μM
  inhibition at 5 µM: ≥ 90%
[1]; 10 μM
  inhibition at 10 µM: ≥ 90%
